In US10532977B2, “Small molecule inhibitors of protein tyrosine phosphatases and uses thereof” (Indiana University Research and Technology Corporation, priority 2015, dated 2020):

Tested on: mPTPB
Assay: IFN-γ induced Erk1/2 phosphorylation in mPTPB transfected Raw264.7 cells
Format: cell-based, mouse
Experimental: Raw264.7 mouse macrophages were cultured in Dulbecco's modified Eagle's medium (DMEM) supplemented with 10% FBS (Invitrogen), penicillin (50 units/mL), and streptomycin (50 μg/mL) under a humidified atmosphere containing 5% CO2 at 37° C. Transfected Raw264.7 cells (Vector, WT-mPTPB) were seeded in a 12-well plate at a density of 4×10^4 cells/well. The following day cells were treated with mPTPB inhibitor 11a for 1 hour, then stimulated with IFN-γ (200 U/ml) for 1 hour. Subsequently, the cells were washed with ice-cold phosphate buffered saline, and lysed with lysis buffer on ice for 30 minutes. Cell lysate was then cleared by centrifuging at 13,000 rpm for 15 minutes. The phosphorylation of ERK1/2 was detected by Western blotting.

O=C(C(c1ccccc1)S(=O)(=O)O)N1CCCC2CCCCC21 (centres unmarked) [Compound L319N53]
Erk1/2 phosphorylation in mPTPB transfected Raw264.7 cells (8 nM, 16 nM, and 32 nM): increased Erk1/2 phosphorylation
Erk1/2 phosphorylation in vector cells (Raw264.7 vector cells): no effect
